A word on the IC50: it is the point on the concentration scale where inhibition reaches its midpoint. What is called EC50 is the concentration needed to bring the measured effect to its halfway point.

The results in this text go back to patent US20140005197A1, “INHIBITORS OF INFLUENZA VIRUSES REPLICATION” (Vertex Pharmaceuticals Incorporated, priority 2010, published 2014).

Read-outs that look alike come from different tables or passages of the source.

In assay [1] the test system is influenza A virus (A/PR/8/34). The assay can be described thus: microbe, parasite or virus in culture. The assay is classed as cell-based.
A further assay concerns influenza A virus. The assay can be described thus: microbe, parasite or virus in culture. The assay is classed as cell-based.
The test system of a further assay is influenza. The assay can be described thus: Influenza Therapeutic Mouse Model. The assay is classed as in vivo. As to conditions: Balb/c mice, 30 mg/kg BID × 10 days, dosing @ 48 hours post infection.
The mark [2] stands for this setting: Influenza A virus, PR/8, MDCK, 72 h, read-out: Flu, MDCK IC50.
[3] abbreviates: Influenza A virus, viral RNA 50% of control wells, 18-36 hours, mean all, read-out: bDNA EC50.
Where [4] appears, read: Influenza A virus, PR/8, MDCK, MDCK cells, A/PR/8/34, CPE assay, read-out: IC50.
The mark [5] stands for this setting: Influenza A virus, bDNA viral RNA assay, read-out: EC50.
Setting [6] is: viral RNA 50% of control wells, 18-36 hours, mean all, read-out: bDNA EC50.

With `O=C(O)[C@H]1C2CCC(CC2)[C@@H]1Nc1nc(-c2n[nH]c3ncc(Cl)cc23)c(F)cc1F` (racemic) [Compound I-6, (2S,3S)-3-((6-(5-chloro-1H-pyrazolo[3,4-b]pyridin-3-yl)-3,5-difluoropyridin-2-yl)-amino)bicyclo[2.2.2]octane-2-carboxylate], the IC50 in assay [1] (setting [2]) is below 3.3 µM. For the same compound, in the assay on influenza A virus (setting [3]), the concentration giving a half-maximal response (EC50) is below 3.3 µM.
For the compound `O=C(O)[C@H]1C2CCC(CC2)[C@@H]1Nc1cncc(-c2n[nH]c3ncc(F)cc23)n1` (racemic) [Compound I-9, (+/−)-trans-(2,3)-3-((6-(5-fluoro-1H-pyrazolo[3,4-b]pyridin-3-yl)pyrazin-2-yl)amino)bicyclo[2.2.2]octane-2-carboxylic acid], the values for the 50% inhibitory concentration (IC50) in assay [1] (setting [2]) and in assay [1] (setting [4]) were below 3.3 µM and 0.017 µM, respectively. For the same compound, the EC50 was 0.034 µM in the assay with influenza A virus (setting [5]) and below 3.3 µM in the assay on influenza A virus (setting [3]).
On to `N#Cc1cc(F)c(N[C@H]2C3CCC(CC3)[C@@H]2C(=O)O)nc1-c1n[nH]c2ncc(F)cc12` (racemic) [Compound I-12], for which, in assay [1] (setting [2]), the IC50 was below 3.3 µM. For the same compound, the concentration for a half-maximal effect (EC50) with influenza A virus (setting [3]) is below 3.3 µM.
With `O=C(O)C1C2CCC(CC2)C1Nc1cnnc(-c2n[nH]c3ncc(F)cc23)n1` (racemic) [Compound I-17, (+/−)-trans-3-((3-(5-fluoro-1H-pyrazolo[3,4-b]pyridin-3-yl)-1,2,4-triazin-5-yl)amino)bicyclo[2.2.2]octane-2-carboxylic acid], the IC50 in assay [1] (setting [2]) was below 3.3 µM. The EC50 with influenza A virus (setting [3]) is below 3.3 µM.
For the compound `N#Cc1cc(F)c(NC2C3CCC(CC3)C2C(=O)O)cc1-c1n[nH]c2ncc(F)cc12` (racemic) [Compound I-21, (+/−)-trans-3-((4-cyano-2-fluoro-5-(5-fluoro-1H-pyrazolo[3,4-b]pyridin-3-yl)phenyl)amino)bicyclo[2.2.2]octane-2-carboxylic acid], the IC50 in assay [1] (setting [2]) was below 3.3 µM. Moreover, in the assay with influenza A virus (setting [3]), the 50% effective concentration (EC50) is below 3.3 µM.
Turning to `O=C(O)[C@H]1C2CCC(CC2)[C@@H]1Nc1nc(-c2n[nH]c3ncc(F)cc23)c(F)cc1F` (stereo in doubt) [Compound I-5], in assay [1] (setting [2]), the IC50 is below 3.3 µM. The EC50 in the assay with influenza A virus (setting [3]) was below 3.3 µM.
Take `O=C(O)[C@H]1C2CCC(CC2)[C@@H]1Nc1nc(-c2n[nH]c3ncc(F)cc23)ccc1F` (stereo in doubt) [Compound I-7]: in assay [1] (setting [2]), the 50% inhibitory concentration (IC50) is below 3.3 µM. Further, the concentration for a half-maximal effect (EC50) in the assay on influenza A virus (setting [3]) was below 3.3 µM.
As for `CCOC(=O)[C@@H]1CCC[C@H](Nc2nc(-c3n[nH]c4ncc(F)cc34)c(F)cc2F)C1` [Compound I-1, (1R,3S)-ethyl 3-(3,5-difluoro-6-(5-fluoro-1H-pyrazolo[3,4-b]pyridin-3-yl)pyridin-2-ylamino)cyclohexanecarboxylate], the IC50 in assay [1] (setting [2]) was below 3.3 µM. In addition, in the assay with influenza A virus (setting [3]), the half-maximal effective concentration (EC50) is below 3.3 µM.
For `O=C(O)[C@@H]1CCC[C@H](Nc2nc(-c3n[nH]c4ncc(F)cc34)c(F)cc2F)C1` [Compound I-2, (1R,3S)-3-(3,5-difluoro-6-(5-fluoro-1H-pyrazolo[3,4-b]pyridin-3-yl)pyridin-2-ylamino)cyclohexanecarboxylic acid], in assay [1] (setting [2]), the half-maximal inhibitory concentration (IC50) is below 3.3 µM. Besides, the 50% effective concentration (EC50) in the assay on influenza A virus (setting [3]) is below 3.3 µM.
Regarding `Cn1cnc(C(=O)N[C@@H]2CCC[C@H](Nc3nc(-c4n[nH]c5ncc(F)cc45)c(F)cc3F)C2)c1` [Compound I-3, N-((1R,3S)-3-(3,5-difluoro-6-(5-fluoro-1H-pyrazolo[3,4-b]pyridin-3-yl)pyridin-2-ylamino)cyclohexyl)-1-methyl-1H-imidazole-4-carboxamide], in assay [1] (setting [2]), the IC50 is below 3.3 µM. The EC50 with influenza A virus (setting [3]) was below 3.3 µM.
As to `O=C(O)[C@H]1C2CCC(CC2)[C@@H]1Nc1nc(-c2n[nH]c3ncc(F)cc23)c(F)cc1F` [Compound I-8, sodium (2S,3S)-3-(3,5-difluoro-6-(5-fluoro-1H-pyrazolo[3,4-b]pyridin-3-yl)pyridin-2-ylamino)bicyclo[2.2.2]octane-2-carboxylate], the IC50 in assay [1] (setting [4]) was 3.57 µM. The “WBP (Penh; Day 6)” value with influenza (Whole Body Plethysmography, study day 6/7) worked out at 2.03. Also, in the assay with influenza (post challenge day 8), the “Percent Weight Loss (Day 8)” value is listed as 20.8%. In the assay on influenza (survival scored for 21 days), the “Percent Survival” value stood at 100%. Also, the half-maximal effective concentration (EC50) in the assay on influenza A virus (setting [5]) was 0.007 µM; with influenza A virus (setting [6]), below 3.3 µM.
For `O=C(O)[C@@H]1C2CCC(CC2)[C@H]1Nc1nc(-c2n[nH]c3ncc(F)cc23)ccc1F` [Compound I-10], the concentration giving a half-maximal response (EC50) with influenza A virus (setting [3]) was below 3.3 µM.
On to `O=C(O)[C@H]1C2CCC(CC2)[C@@H]1Nc1nc(-c2n[nH]c3ncc(F)cc23)ccc1F` [Compound I-11, (2S,3S)-3-(3-fluoro-6-(5-fluoro-1H-pyrazolo[3,4-b]pyridin-3-yl)pyridin-2-ylamino)bicyclo[2.2.2]octane-2-carboxylic acid], for which the IC50 in assay [1] (read-out: Flu, MDCK IC50) is below 3.3 µM. In the assay with influenza A virus (setting [6]), the half-maximal effective concentration (EC50) is below 3.3 µM.
For `O=C(O)[C@@H]1C2CCC(CC2)[C@H]1Nc1cncc(-c2n[nH]c3ncc(F)cc23)n1` [Compound I-13, (2R,3R)-3-((6-(5-fluoro-1H-pyrazolo[3,4-b]pyridin-3-yl)pyrazin-2-yl)amino)bicyclo-[2.2.2]octane-2-carboxylic acid], the IC50 in assay [1] (setting [2]) was below 3.3 µM. Also, in the assay with influenza A virus (setting [3]), the concentration giving a half-maximal response (EC50) is below 3.3 µM.
Regarding `O=C(O)[C@H]1C2CCC(CC2)[C@@H]1Nc1cncc(-c2n[nH]c3ncc(F)cc23)n1` [Compound I-14, (2S,3S)-3-((6-(5-fluoro-1H-pyrazolo[3,4-b]pyridin-3-yl)pyrazin-2-yl)amino)bicyclo-[2.2.2]octane-2-carboxylic acid], in assay [1] (setting [2]), the IC50 is below 3.3 µM. In addition, the EC50 in the assay on influenza A virus (setting [3]) was below 3.3 µM.
Regarding `N#Cc1cc(F)c(N[C@H]2C3CCC(CC3)[C@@H]2C(=O)O)nc1-c1n[nH]c2ncc(F)cc12` [Compound I-15, (2S,3S)-3-((5-cyano-3-fluoro-6-(5-fluoro-1H-pyrazolo[3,4-b]pyridin-3-yl)pyridin-2-yl)amino)bicyclo[2.2.2]octane-2-carboxylic acid], the half-inhibitory concentration (IC50) in assay [1] (setting [2]) is below 3.3 µM. Moreover, in the assay on influenza A virus (setting [3]), the EC50 is below 3.3 µM.
With `N#Cc1cc(F)c(N[C@@H]2C3CCC(CC3)[C@H]2C(=O)O)nc1-c1n[nH]c2ncc(F)cc12` [Compound I-16], the IC50 in assay [1] (setting [2]) was below 3.3 µM. The concentration for a half-maximal effect (EC50) in the assay with influenza A virus (setting [3]) was below 3.3 µM.
For `O=C(N[C@@H]1CCC[C@H](Nc2nc(-c3n[nH]c4ncc(F)cc34)c(F)cc2F)C1)c1csc(Cl)c1` [Compound I-18, 5-chloro-N-((1R,3S)-3-((3,5-difluoro-6-(5-fluoro-1H-pyrazolo[3,4-b]pyridin-3-yl)pyridin-2-yl)amino)cyclohexyl)thiophene-3-carboxamide], the IC50 in assay [1] (setting [2]) was below 3.3 µM. Also, the EC50 with influenza A virus (setting [3]) was below 3.3 µM.
Consider `O=C(N[C@@H]1CCC[C@H](Nc2nc(-c3n[nH]c4ncc(F)cc34)c(F)cc2F)C1)c1ccsc1` [Compound I-19, N-((1R,3S)-3-((3,5-difluoro-6-(5-fluoro-1H-pyrazolo[3,4-b]pyridin-3-yl)pyridin-2-yl)amino)cyclohexyl)thiophene-3-carboxamide], for which, in assay [1] (setting [2]), the IC50 was below 3.3 µM. The concentration giving a half-maximal response (EC50) in the assay with influenza A virus (setting [3]) was below 3.3 µM.
Consider `N#Cc1cc(F)c(N[C@H]2C3CCC(CC3)[C@@H]2C(=O)O)cc1-c1n[nH]c2ncc(F)cc12` [Compound I-20], for which, in assay [1] (read-out: Flu, MDCK IC50), the IC50 is below 3.3 µM. Besides, the half-maximal effective concentration (EC50) with influenza A virus (setting [6]) is below 3.3 µM.
